Data published in patent publication US20100197760A1, “DISUBSTITUTED PHENYLPYRROLIDINES AS MODULATORS OF CORTICAL CATECHOLAMINERGIC NEUROTRANSMISSION” (NSAB, FILIAL AF NEUROSEARCH SWEDEN AB, SVERIGE, priority 2007, published 2010).
Counter-ions that a name gives are not always drawn. Like-named read-outs stand apart in the source and are kept apart here.

Key:
[1] = system: DOPAC levels (3,4-dihydroxyphenylacetic acid) in the rat striatum; assay: In vivo neurochemistry: tissue content of DOPAC in rat striatum; parameters: species or system rat (male Sprague-Dawley); details: 100 μmol/kg s.c., 60 min after administration, %-increase from control value
Protocol: The measurement of the tissue content of DOPAC is well established in the field of research since the 1960's. In short, male Sprague-Dawely rats are administered the test compound 60 minutes prior to decapitation. The brain is rapidly taken out and dissected. The striatum is rapidly frozen and subsequently quantitatively analysed with respect to its content of DOPAC by means of HPLC and electrochemical detection. The number of animals used for each test compound/vehicle is 4/group.
Male Sprague-Dawley rats weighing 220-320 g are used throughout the experiments. Sixty (60) minutes following administration of the test substance, the rats are decapitated. Directly after decapitation the brain is removed from the skull and put on a glass petri bowl filled with ice. The limbic system (containing the nucleus accumbens—both the core and shell, most parts of the olfactory tubercle and ventral pallidum) is dissected using two thin, angled tweezers and put directly on foil on dry ice (carbon dioxide −78° C.). The striatum and cortex are then dissected and also put on dry ice. The time from decapitation until the last tissue is dissected varies from four to six minutes. The tissue is weighed using a Sartorius BP3105 connected to a computer and packed in labelled tin foil, then stored in an −80° C. freezer. Great care is taken in order to keep the tissue frozen until the time of neurochemical analysis. Each brain part is subsequently analyzed with respect to its content of monoamines and their metabolites.
The monoamine transmitter substances (NE (norepinephrine), DA (dopamine), 5-HT (serotonin)) as well as their amine (NM (normethanephrine), 3-MT (3-methoxytyramine)) and acid (DOPAC (3,4-dihydroxyphenylacetic acid), 5-HIAA (5-hydroxyindoleacetic acid), HVA (homovanillic acid)) metabolites are quantified in brain tissue homogenates by HPLC separations and electrochemical detection.
The analytical method is based on two chromatographic separations dedicated for amines or acids. Two chromatographic systems share a common auto injector with a 10-port valve and two sample loops for simultaneous injection on the two systems. Both systems are equipped with a reverse phase column (Luna C18(2), dp 3 μm, 50*2 mm i.d., Phenomenex) and electrochemical detection is accomplished at two potentials on glassy carbon electrodes (MF-1000, Bioanalytical Systems, Inc.). The column effluent is passed via a T-connection to the detection cell or to a waste outlet. This is accomplished by two solenoid valves, which block either the waste or detector outlet. By preventing the chromatographic front from reaching the detector, better detection conditions are achieved. The aqueous mobile phase (0.4 ml/min) for the acid system contains citric acid 14 mM, sodium citrate 10 mM, MeOH 15% (v/v) and EDTA 0.1 mM. Detection potentials relative to Ag/AgCl reference are 0.45 and 0.60V. The aqueous ion pairing mobile phase (0.5 ml/min) for the amine system contains citric acid 5 mM, sodium citrate 10 mM, MeOH 9% (v/v), MeCN 10.5% (v/v), decane sulfonic acid 0.45 mM, and EDTA 0.1 mM. Detection potentials relative to Ag/AgCl reference are 0.45 and 0.65V.

[2] = system: extracellular levels of dopamine, norepinephrine and serotonin in striatum and prefrontal cortex; details: literature statement (Pliszka, 2005); cited from earlier work
[3] = system: extracellular levels of dopamine, norepinephrine and serotonin in striatum and prefrontal cortex; assay: In vivo microdialysis in awake, freely moving rats; parameters: species or system rat (male Sprague-Dawley); details: mirtazapine 10 mg/kg s.c. (FIGS. 21 and 22)
[4] = system: DOPAC levels (3,4-dihydroxyphenylacetic acid) in the rat striatum; details: 100 μmol/kg s.c., data taken from Table 2 in Ref 1 (J. Med. Chem. 1994, 37, 2735); cited from earlier work

SMILES	melting point [°C]	DOPAC %-increase [1]	also measured
Fc1ccc(C2CCNC2)cc1F (stereo not drawn) (as salt: hydrochloric acid salt) [Example 5, 3-(3,4-DIFLUOROPHENYL)PYRROLIDINE]	139 to 140	–	–
CN1CCC(c2ccc(F)c(F)c2)C1 (stereo not drawn) [Example 4, 3-(3,4-DIFLUOROPHENYL)-1-METHYLPYRROLIDINE]	–	−20%	–
Clc1ccc(C2CCNC2)cc1Cl (stereo not drawn) (as salt: hydrochloric acid salt) [Example 1, 3-(3,4-DICHLOROPHENYL)PYRROLIDINE]	136 to 137	–	–
CN1CCC(c2ccc(F)c(F)c2)C1 (stereo not drawn) (as salt: fumaric acid salt) [Example 4, 3-(3,4-DIFLUOROPHENYL)-1-METHYLPYRROLIDINE]	140 to 142	–	–
CNCC[C@@H](Oc1ccccc1C)c1ccccc1 [atomoxetine]	–	–	cortical DA and NE levels [2]: regionally selective increases in cortical DA and NE
CN1CCN2c3ncccc3Cc3ccccc3C2C1 (stereo not drawn) [mirtazapine]	–	–	extracellular norepinephrine and dopamine, cortex versus striatum [3]: increase predominantly extracellular norepinephrine and dopamine in the cortex
Fc1cc(F)cc(C2CCNC2)c1 (stereo not drawn) (as salt: oxalic acid salt) [Example 3, 3-(3,5-DIFLUOROPHENYL)PYRROLIDINE]	199 to 200	–	–
Fc1ccc(C2CCNC2)cc1F (stereo not drawn) [Example 5, 3-(3,4-DIFLUOROPHENYL)PYRROLIDINE]	–	−37%	–
Clc1ccc(C2CCNC2)cc1Cl (stereo not drawn) [Example 1, 3-(3,4-DICHLOROPHENYL)PYRROLIDINE]	–	−45%	–
Fc1ccc(C2CCNC2)c(F)c1 (stereo not drawn) (as salt: oxalic acid salt) [Example 2, 3-(2,4-DIFLUOROPHENYL)PYRROLIDINE]	116	–	–
Fc1cc(F)cc(C2CCNC2)c1 (stereo not drawn) [Example 3, 3-(3,5-DIFLUOROPHENYL)PYRROLIDINE]	–	−19%	–
CCCN1CCC[C@@H](c2cccc(S(C)(=O)=O)c2)C1 [Example 16 of ref. 1]	–	–	DOPAC %-increase [4]: +150^2%
CCCN1CCC(c2cc(F)cc(C(F)(F)F)c2)CC1 [Example 44 of WO01/46146, 4-(3-fluoro-5-trifluoromethyl-phenyl)-1-propyl-piperidine, reference compound]	–	+239%	–
Fc1ccc(C2CCNC2)c(F)c1 (stereo not drawn) [Example 2, 3-(2,4-DIFLUOROPHENYL)PYRROLIDINE]	–	−22%	–
CCCN1CCC(c2ccc(Cl)c(C(F)(F)F)c2)CC1 [Example 9 of WO01/46146, 4-(4-chloro-3-trifluoromethyl-phenyl)-1-propyl-piperidine, reference compound]	–	+94%	–
